The values below are quoted from earlier work in patent US20030060423A1, “Co-therapy for the treatment of dementia and associated behavioral manifestations comprising anticonvulsant derivatives and acetylcholinesterase inhibitors” (priority 2001, published 2003).

For data set [1], the system named is behavioral and psychiatric symptoms of AD. The following applies: in vivo.
Another data set has as its system focal ischemia. The following applies: used 2 hours after MCA embolization, rat.
The subject of another data set is kindled epilepsy. The note with it: animal model of kindled epilepsy.
Data set [2] relates to simple and complex partial seizures and secondarily generalized seizures. The following applies: clinical trials, adjunctive therapy or monotherapy.
A further data set deals with seizures. The note with it: several rodent models of epilepsy.
For the next data set, the system named is attention, cognition. The note with it: some individuals.
The test system of data set [3] is neuronal damage following global ischemia. The following applies: gerbils.

On to `COc1ccc2c3c1O[C@H]1C[C@@H](O)C=C[C@@]31CCN(C)C2` [galantamine, (4aS,6R,8aS)-4a,5,9,10,11,12-hexahydro-3-methoxy-11-methyl-6H-benzofuro[3a,3,2-ef][2]benzazepin-6-ol], for which the “benefit on behavioral and psychiatric symptoms of AD” value in data set [1] was “benefits on the behavioral and psychiatric symptoms of AD”. Moreover, in the data set on nicotinic receptors, the “modulation of nicotinic receptors” value is recorded as “allosteric modulation of nicotinic receptors”.

Turning to `CC1(C)O[C@@H]2[C@@H](CO[C@@]3(COS(N)(=O)=O)OC(C)(C)O[C@@H]23)O1` [topiramate, 2,3:4,5-bis-O-(1-methylethylidene)-β-D-fructopyranose sulfamate], the neuroprotective effect entry in the data set with focal ischemia is “dose- and use-dependent neuroprotective effect”. Further, the block of seizures result in the data set with kindled epilepsy and with seizures was “effectively block seizures” in each case. Further, in data set [2], the “efficacy in treating simple and complex partial seizures and secondarily generalized seizures” value is “effective as adjunctive therapy or as monotherapy”. Also, the effect on attention result with attention, cognition is on record as “may impair attention”. In addition, the “neuroprotective effect against neuronal damage” value in data set [3] is listed as “neuroprotective effect”.
